The results in this text go back to patent publication US8283465B2, “Triazolopyridine compound, and action thereof as prolyl hydroxylase inhibitor or erythropoietin production-inducing agent” (Japan Tobacco Inc., priority 2009, dated 2012).

Where a name gives a salt, the structure may show the parent alone. Read-outs that look alike come from different tables or passages of the source.

The target in one assay is T1, human PHD2 (Homo sapiens, UniProt Q9GZT9).
T1 construct: made in house; host or cells: Sf9 insect cells (baculovirus, pVL1393 vector)
T1 sequence (Q9GZT9 whole entry): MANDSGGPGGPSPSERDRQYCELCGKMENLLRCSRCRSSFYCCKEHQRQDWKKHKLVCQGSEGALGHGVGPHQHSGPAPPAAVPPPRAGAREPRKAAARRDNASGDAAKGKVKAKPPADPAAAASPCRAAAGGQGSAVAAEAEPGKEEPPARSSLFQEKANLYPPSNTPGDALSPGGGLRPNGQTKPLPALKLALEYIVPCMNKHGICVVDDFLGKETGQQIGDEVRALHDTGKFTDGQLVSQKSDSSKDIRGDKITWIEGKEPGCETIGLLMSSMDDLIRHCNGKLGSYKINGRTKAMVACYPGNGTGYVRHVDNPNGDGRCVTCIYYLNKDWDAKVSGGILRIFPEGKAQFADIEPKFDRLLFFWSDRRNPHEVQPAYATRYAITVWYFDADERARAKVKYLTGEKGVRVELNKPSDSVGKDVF
Description: Measurement of human PHD inhibitory activity (TR-FRET, hydroxylation of HIF-1α partial peptide). The class given is biochemical. The following applies: human PHD2 enzyme 1 nM, 25° C. 30 min, values consisting solely of numbers. The method, then:
Human PHD2 was expressed in insect cell (Sf9 cell). […] The vector and baculovirus were cotransfected into Sf9, and human PHD2 expression baculovirus was isolated in Sf9. By using the virus, human PHD2-expressed cell was prepared. […] The cell lysate was flowed into a column filled with ANTI-FLAG M2 Affinity Gel Freezer Safe (SIGMA), washed, and the N-terminal FLAG-tag-added human PHD2 was eluted and collected.
VBC complex (VHL/Elongin B/Elongin C) was expressed in Escherichia coli (BL21(DE3)). […] After these expression vectors were transfected into Escherichia coli (BL21(DE3)), Escherichia coli was cultured at 37° C. in the medium containing IPTG. The collected Escherichia coli was disrupted by sonication and flowed into a column filled with Ni-NTA superflow (QIAGEN), washed, and the product was eluted and collected. The eluate was flowed into a column filled with Glutathione Sepharose 4B, washed, and the product was eluted and collected. […]
As for human PHD2 enzyme activity, hydroxylation of proline residue contained in the 19 residues of the partial peptide based on the sequence of HIF-1α as a substrate was measured by TR-FRET (Time-Resolved Fluorescence Resonance Energy Transfer) method.
A test compound and a substrate solution were added to a 96-well plate. The reaction was started by addition of a human PHD2 enzyme solution (final concentration 1 nM) to the reaction system. After incubation at 25° C. for 30 min, a stop solution containing EDTA was added, and a VBC complex solution containing europium (Eu) and Xlent was added, and the amount of hydroxylated proline residue was quantified by time-resolved fluorescence spectroscopy. The time-resolved fluorescence in each well was measured, and the human PHD inhibitory activity (%) of the test compound was calculated based on the values of enzyme non-addition well and test compound non-addition well.

Assay [1] concerns human EPO production, Hep3B cells. In words: Human EPO production activity in Hep3B cells (EPO-ELISA of culture supernatant). Format: cell-based. The conditions noted are these: for EC50: 24 hr incubation, values consisting solely of numbers, read-out: EC50 (μM) in vitro, human EPO production activity; for production activity (%) at 30 μM in vitro, human EPO: 24 hr, values containing %, relative to maximum production. The method, then:
The activity of the test compound on human EPO production was measured using Hep3B (AMC) established from human liver-derived cell line.
Hep3B cells were cultured in Eagle-MEM medium containing 10% fetal bovine serum, and the test compound was diluted with dimethyl sulfoxide (DMSO).
Hep3B cells were cultured in a 96-well plate, and a test compound was added at each concentration 24 hr later. After incubation at 37° C. for 24 hr, the culture supernatant was collected. The concentration of human EPO produced in the culture supernatant was measured using a human EPO-ELISA kit (manufactured by StemCell Technologies, 01630) according to the manufacturer's explanation, and the human EPO production activity (%) of the test compound was calculated based on the maximum value of production under the above conditions and the value without addition of the test compound. […] In these Tables, the values consisting solely of numbers show EC50 (μM) and those containing % show human EPO production activity (%) at […].
Background: ELISA stands for enzyme-linked immunosorbent assay.

The mark [2] stands for this setting: read-out: IC50 (μM) in vitro, human PHD inhibitory activity.

Turning to `O=C(O)CNC(=O)c1c(O)cc(-c2cccc(C(F)(F)F)c2)n2ncnc12` [Example 33, {[7-hydroxy-5-(3-trifluoromethyl-phhenyl)[1,2,4]triazolo[1,5-a]pyridine-8-carbonyl]ammino}acetic acid hydrochloride], the concentration for half-maximal inhibition (IC50) (usually the point on the concentration scale where inhibition reaches its midpoint) on human PHD2 (setting [2]) was found to be 0.46 µM. For the same molecule, the EC50 – broadly, the midpoint of the concentration-response curve – in assay [1] (Homo sapiens) turned out to be 10.1 µM.

Turning to `O=C(O)CNC(=O)c1c(O)cc(CCc2ccccc2C(F)(F)F)c2ncnn12` [Example 100, ({6-hydroxy-8-[2-(2-trifluoromethyl phenyl)ethyl][1,2,4]triazolo[1,5-a]pyridine-5-carbonyl}amino) acetic acid hydrochloride], at human PHD2 (setting [2]), the concentration for half-maximal inhibition (IC50) came to 0.82 µM. For the same molecule, in assay [1] (Homo sapiens), the EC50 stood at 18 µM.

In turn, `O=C(O)CNC(=O)c1c(O)cc(CCc2ccccc2)n2ncnc12` [Example 116, [(7-hydroxy-5-phenethyl[1,2,4]triazolo[1,5-a]pyridine-8-carbonyl)amino] acetic acid] showed an IC50 at human PHD2 (IC50 (μM) in vitro, human PHD inhibitory activity) of 0.18 µM. The EC50 in assay [1] was 5.6 µM.

`O=C(O)CNC(=O)c1c(O)cc(-c2ccc(C3CC3)cc2F)n2ncnc12` [Example 82, {[5-(4-cyclopropyl-2-fluorophenyl)-7-hydroxy[1,2,4]triazolo[1,5-a]pyridine-8-carbonyl]amino} acetic acid hydrochloride]: at human PHD2 (setting [2]), the concentration for half-maximal inhibition (IC50) was 0.15 µM. Besides, the half-maximal effective concentration (EC50) in assay [1] (Homo sapiens) was determined as 5.4 µM.

`O=C(O)CNC(=O)c1c(O)cc(-c2ccc(F)c(C(F)(F)F)c2)c2ncnn12` [Example 106, {[8-(4-fluoro-3-trifluoromethyl-phenyl)-6-hydroxy[1,2,4]triazolo[1,5-a]pyridine-5-carbonyl]amino} acetic acid hydrochloride]: the 50% inhibitory concentration (IC50) on human PHD2 (setting [2]) is 0.23 µM. Moreover, the EC50 in assay [1] (Homo sapiens) worked out at 6 µM.

On to `O=C(O)CNC(=O)c1c(O)cc(CCC2CCCCC2)c2ncnn12` [Example 98, {[8-(2-cyclohexylethyl)-6-hydroxy[1,2,4]triazolo[1,5-a]pyridine-5-carbonyl]amino} acetic acid hydrochloride], for which, at human PHD2 (setting [2]), the IC50 was determined as 1.13 µM. Moreover, the EC50 in assay [1] (Homo sapiens) came out at 25.6 µM.

As to `O=C(O)CNC(=O)c1c(O)cc(-c2cccc(F)c2)n2ncnc12` [Example 42, {[5-(3-fluorophenyl)-7-hydroxy[1,2,4]triazolo[1,5-a]pyridine-8-carbonyl]amino}acetic acid hydrochloride], at human PHD2 (setting [2]), the IC50 is 0.24 µM. For the same molecule, the EC50 in assay [1] (Homo sapiens) turned out to be 14.2 µM.

For `O=C(O)CNC(=O)c1c(O)cc(-c2cc(F)cc(C(F)(F)F)c2)n2ncnc12` [Example 31, {[5-(3-fluoro-5-trifluoromethyl-phenyl)-7-hydroxy[1,2,4]triazolo[1,5-a]pyridine-8-carbonyl]amino}acetic acid hydrochloride], the IC50 at human PHD2 (setting [2]) was found to be 0.8 µM. Moreover, in assay [1] (Homo sapiens), the concentration giving a half-maximal response (EC50) came out at 12.1 µM.

For the molecule `O=C(O)CNC(=O)c1c(O)cc(CC2CCCC2)n2ncnc12` [Example 20, [(5-cyclopentylmethyl-7-hydroxy[1,2,4]triazolo[1,5-a]pyridin-8-carbonyl)amino]acetic acid hydrochloride], the IC50 at human PHD2 (setting [2]) turned out to be 0.59 µM. Besides, in assay [1] (Homo sapiens), the EC50 was found to be 6.6 µM.

`O=C(O)CNC(=O)c1c(O)cc(-c2cc(Cl)cc(C(F)(F)F)c2)n2ncnc12` [Example 36, {[5-(3-chloro-5-trifluoromethyl-phenyl)-7-hydroxy[1,2,4]triazolo[1,5-a]pyridine-8-carbonyl]amino}acetic acid hydrochloride]: the IC50 at human PHD2 (setting [2]) came to 0.72 µM. The EC50 in assay [1] (Homo sapiens) stood at 10.5 µM.

As for `O=C(O)CNC(=O)c1c(O)cc(CCC2CCC2)n2ncnc12` [Example 54, {[5-(2-cyclobutylethyl)-7-hydroxy[1,2,4]triazolo[1,5-a]pyridine-8-carbonyl]amino} acetic acid hydrochloride], on human PHD2 (setting [2]), the concentration for half-maximal inhibition (IC50) was 0.44 µM. Further, in assay [1] (Homo sapiens), the half-maximal effective concentration (EC50) came out at 4.5 µM.

In the case of `O=C(O)CNC(=O)c1c(O)cc(-c2ccc(F)cc2)n2ncnc12` [Example 32, {[5-(4-fluorophenyl)-7-hydroxy[1,2,4]triazolo[1,5-a]pyridine-8-carbonyl]ammino}acetic acid hydrochloride], the IC50 at human PHD2 (setting [2]) was found to be 0.38 µM. Also, the 50% effective concentration (EC50) in assay [1] (Homo sapiens) was 15.6 µM.

In the case of `O=C(O)CNC(=O)c1c(O)cc(CCc2cc(F)cc(F)c2)n2ncnc12` [Example 19, ({5-[2-(3,5-difluorophenyl)ethyl]-7-hydroxy[1,2,4]triazolo[1,5-a]pyridine-8-carbonyl}amino)acetic acid hydrochloride], the 50% inhibitory concentration (IC50) on human PHD2 (setting [2]) is 0.26 µM. The concentration for a half-maximal effect (EC50) in assay [1] (Homo sapiens) worked out at 6.6 µM.

Take `O=C(O)CNC(=O)c1c(O)cc(C2=CCCCC2)c2ncnn12` [Example 93, [(8-cyclohex-1-enyl-6-hydroxy[1,2,4]triazolo[1,5-a]pyridine-5-carbonyl)amino] acetic acid hydrochloride]: the 50% inhibitory concentration (IC50) at human PHD2 (setting [2]) amounted to 0.51 µM. Besides, the EC50 in assay [1] (Homo sapiens) is 16 µM.

In the case of `O=C(O)CNC(=O)c1c(O)cc(-c2ccc(Cl)cc2)c2ncnn12` [Example 108, {[8-(4-chlorophenyl)-6-hydroxy[1,2,4]triazolo[1,5-a]pyridine-5-carbonyl]amino} acetic acid], on human PHD2 (setting [2]), the IC50 stood at 0.16 µM. Further, in assay [1] (Homo sapiens), the EC50 is 8.9 µM.

As for `O=C(O)CNC(=O)c1c(O)c(-c2ccccc2)cn2cnnc12` [Example 9, [(7-hydroxy-6-phenyl[1,2,4]triazolo[4,3-a]pyridine-8-carbonyl)amino]acetic acid], at human PHD2 (setting [2]), the IC50 came out at 1.57 µM. Also, the “production activity (%) at 30 μM in vitro, human EPO” value (“production activity (%) at 30 μM” for short) in assay [1] is listed as 1%.

On to `O=C(O)CNC(=O)c1c(O)cc(CC2CCCCC2)n2ncnc12` [Example 28, [(5-cyclohexylmethyl-7-hydroxy[1,2,4]triazolo[1,5-a]pyridine-8-carbonyl)amino]acetic acid hydrochloride], for which the IC50 at human PHD2 (setting [2]) amounted to 1.38 µM. Moreover, in assay [1] (Homo sapiens), the concentration for a half-maximal effect (EC50) amounted to 13.9 µM.

Turning to `CCC(CC)c1cc(O)c(C(=O)NCC(=O)O)c2ncnn12` [Example 40, {[5-(1-ethylpropyl)-7-hydroxy[1,2,4]triazolo[1,5-a]pyridine-8-carbonyl]amino}acetic acid hydrochloride], at human PHD2 (setting [2]), the half-inhibitory concentration (IC50) is 0.87 µM. In assay [1] (Homo sapiens), the 50% effective concentration (EC50) is 17.7 µM.

Regarding `Cc1nnc2c(C(=O)NCC(=O)O)c(O)c(-c3ccccc3)cn12.Cl` [Example 112, [(7-hydroxy-3-methyl-6-phenyl[1,2,4]triazolo[4,3-a]pyridine-8-carbonyl)amino] acetic acid hydrochloride], at human PHD2 (setting [2]), the 50% inhibitory concentration (IC50) worked out at 3.09 µM. The “production activity (%) at 30 μM” value in assay [1] came to 0%.

Consider `O=C(O)CNC(=O)c1c(O)cc(-c2ccc(F)c(Cl)c2)c2ncnn12` [Example 94, {[8-(3-chloro-4-fluorophenyl)-6-hydroxy[1,2,4]triazolo[1,5-a]pyridine-5-carbonyl]amino} acetic acid hydrochloride], for which the 50% inhibitory concentration (IC50) on human PHD2 (setting [2]) was found to be 0.11 µM. Moreover, the EC50 in assay [1] (Homo sapiens) amounted to 9.7 µM.

As for `O=C(O)CNC(=O)c1c(O)cc(CCc2ccccc2)n2nc(C3CC3)nc12` [Example 15, [(2-cyclopropyl-7-hydroxy-5-phenethyl[1,2,4]triazolo[1,5-a]pyridine-8-carbonyl)amino]acetic acid hydrochloride], the half-inhibitory concentration (IC50) at human PHD2 (setting [2]) turned out to be 1.8 µM. In addition, the EC50 in assay [1] (Homo sapiens) came out at 29.1 µM.

Take `N#Cc1cccc(-c2cc(O)c(C(=O)NCC(=O)O)c3ncnn23)c1` [Example 37, {[5-(3-cyanophenyl)-7-hydroxy[1,2,4]triazolo[1,5-a]pyridine-8-carbonyl]amino}acetic acid hydrochloride]: at human PHD2 (setting [2]), the IC50 was found to be 0.2 µM. Further, the “production activity (%) at 30 μM” value in assay [1] is listed as 11%.

Consider `O=C(O)CNC(=O)c1c(O)cc(CCC2CC2)n2ncnc12` [Example 47, {[5-(2-cyclopropylethyl)-7-hydroxy[1,2,4]triazolo[1,5-a]pyridine-8-carbonyl]amino}acetic acid hydrochloride], for which the half-inhibitory concentration (IC50) at human PHD2 (setting [2]) is 0.56 µM. In addition, the half-maximal effective concentration (EC50) in assay [1] (Homo sapiens) came out at 12 µM.

For the molecule `O=C(O)CNC(=O)c1c(O)ccn2nc(-c3ccccc3)nc12` [Example 13, [(7-hydroxy-2-phenyl[1,2,4]triazolo[1,5-a]pyridine-8-carbonyl)amino]acetic acid hydrochloride], on human PHD2 (setting [2]), the half-maximal inhibitory concentration (IC50) was found to be 1.31 µM. Besides, in assay [1], the “production activity (%) at 30 μM” value was 1%.
